Species on record: Rattus norvegicus
Assay: Open TG-GATES - Regimen: Single
Type: toxicity, organism-based, Sprague-Dawley
Parameters: regimen Single, gender Male, age 6 weeks
Conditions: in vivo, po, 0 mg/kg, route gavage, dose level Control; for Bas / Eos / Fbg / Hb / Ht / Lym / MCH / MCHC / Mono / Neu / PT / Plat / RBC / Ret / WBC: tissue Blood; for KIDNEY_L / KIDNEY_R / KIDNEY_TOTAL: tissue Kidney; for LIVER: tissue Liver; for ALP / ALT / AST / BUN / CRE / Ca / DBIL / IP / K / LDH / Na / PL / RALB / TBIL / TC / TG / TP / gamma-GTP: tissue Plasma

CCC(C)(C)C(=O)O[C@H]1C[C@@H](C)C=C2C=C[C@H](C)[C@H](CC[C@@H]3C[C@@H](O)CC(=O)O3)[C@H]21 [SIMVASTATIN]
TERMINAL_BW (3 h): 203.4 g
Bas (3 h): 0%
Eos (3 h): 1%
Fbg (3 h): 216.8 mg/dL
Hb (3 h): 12.9 g/dL
Ht (3 h): 39.1%
Lym (3 h): 83.6%
MCH (3 h): 21.5 pg
MCHC (3 h): 32.8%
Mono (3 h): 6%
Neu (3 h): 9.6%
PT (3 h): 11 s
Plat (3 h): 101.5 x10_4/uL
RBC (3 h): 596.2 x10_4/ul
Ret (3 h): 7.8%
WBC (3 h): 114.1 x10_2/uL
KIDNEY_L (3 h): 0.9 g
KIDNEY_R (3 h): 1 g
KIDNEY_TOTAL (3 h): 1.9 g
LIVER (3 h): 9.7 g
ALP (3 h): 839.8 IU/L
ALT (3 h): 35.4 IU/L
AST (3 h): 61.6 IU/L
BUN (3 h): 14.4 mg/dL
CRE (3 h): 0.6 mg/dL
Ca (3 h): 11 mg/dL
DBIL (3 h): 0.02 mg/dL
IP (3 h): 9.1 mg/dL
K (3 h): 4.4 meq/L
LDH (3 h): 82.2 IU/L
Na (3 h): 138.8 meq/L
PL (3 h): 147.4 mg/dL
RALB (3 h): 3.5 g/dL
TBIL (3 h): 0.4 mg/dL
TC (3 h): 83.8 mg/dL
TG (3 h): 63.6 mg/dL
TP (3 h): 5.6 g/dL
gamma-GTP (3 h): 1.6 IU/L
TERMINAL_BW (6 h): 199.1 g
Bas (6 h): 0%
Eos (6 h): 1%
Fbg (6 h): 208.2 mg/dL
Hb (6 h): 13 g/dL
Ht (6 h): 39.5%
Lym (6 h): 79.8%
MCH (6 h): 21.8 pg
MCHC (6 h): 32.8%
Mono (6 h): 6.2%
Neu (6 h): 13%
PT (6 h): 11.8 s
Plat (6 h): 111.5 x10_4/uL
RBC (6 h): 597.2 x10_4/ul
Ret (6 h): 9.2%
WBC (6 h): 109.4 x10_2/uL
KIDNEY_L (6 h): 0.9 g
KIDNEY_R (6 h): 0.9 g
KIDNEY_TOTAL (6 h): 1.7 g
LIVER (6 h): 8.5 g
ALP (6 h): 648 IU/L
ALT (6 h): 29 IU/L
AST (6 h): 60.4 IU/L
CRE (6 h): 0.5 mg/dL
Ca (6 h): 10.8 mg/dL
DBIL (6 h): 0.046 mg/dL
IP (6 h): 9.4 mg/dL
K (6 h): 4.5 meq/L
LDH (6 h): 77 IU/L
Na (6 h): 137.8 meq/L
PL (6 h): 120.4 mg/dL
RALB (6 h): 3.6 g/dL
TBIL (6 h): 0.4 mg/dL
TC (6 h): 70.6 mg/dL
TG (6 h): 47.8 mg/dL
TP (6 h): 5.5 g/dL
gamma-GTP (6 h): 1 IU/L
TERMINAL_BW (9 h): 197.5 g
Bas (9 h): 0%
Eos (9 h): 1%
Fbg (9 h): 215.2 mg/dL
Hb (9 h): 13.2 g/dL
Ht (9 h): 40.2%
Lym (9 h): 85.6%
MCHC (9 h): 32.9%
Mono (9 h): 5.4%
Neu (9 h): 8.2%
PT (9 h): 11.7 s
Plat (9 h): 114.5 x10_4/uL
RBC (9 h): 605.4 x10_4/ul
Ret (9 h): 10.2%
WBC (9 h): 96.4 x10_2/uL
KIDNEY_L (9 h): 0.9 g
KIDNEY_R (9 h): 0.9 g
KIDNEY_TOTAL (9 h): 1.8 g
LIVER (9 h): 8.4 g
ALP (9 h): 810.4 IU/L
ALT (9 h): 29.2 IU/L
AST (9 h): 58.4 IU/L
BUN (9 h): 12.2 mg/dL
CRE (9 h): 0.6 mg/dL
Ca (9 h): 10.9 mg/dL
DBIL (9 h): 0.04 mg/dL
IP (9 h): 10.9 mg/dL
K (9 h): 4.6 meq/L
LDH (9 h): 68.2 IU/L
Na (9 h): 137.6 meq/L
PL (9 h): 110.8 mg/dL
RALB (9 h): 3.7 g/dL
TBIL (9 h): 0.4 mg/dL
TC (9 h): 61.8 mg/dL
TG (9 h): 34.2 mg/dL
TP (9 h): 5.2 g/dL
gamma-GTP (9 h): 1.8 IU/L
TERMINAL_BW (24 h): 215.6 g
Bas (24 h): 0%
Eos (24 h): 1%
Fbg (24 h): 222.6 mg/dL
Hb (24 h): 13 g/dL
Ht (24 h): 40.1%
Lym (24 h): 82.8%
MCHC (24 h): 32.5%
Mono (24 h): 8.2%
Neu (24 h): 8.4%
Plat (24 h): 113.8 x10_4/uL
RBC (24 h): 614 x10_4/ul
Ret (24 h): 9.5%
KIDNEY_L (24 h): 1 g
KIDNEY_R (24 h): 1 g
KIDNEY_TOTAL (24 h): 2 g
ALP (24 h): 887.6 IU/L
ALT (24 h): 38.8 IU/L
AST (24 h): 65 IU/L
BUN (24 h): 18.6 mg/dL
CRE (24 h): 0.6 mg/dL
Ca (24 h): 10.8 mg/dL
DBIL (24 h): 0.05 mg/dL
IP (24 h): 8 mg/dL
K (24 h): 4.6 meq/L
LDH (24 h): 97.8 IU/L
Na (24 h): 139.4 meq/L
PL (24 h): 144.8 mg/dL
RALB (24 h): 3.7 g/dL
TBIL (24 h): 0.4 mg/dL
TC (24 h): 79.6 mg/dL

Reference: ChEMBL document CHEMBL3885861, “Open TG-GATES”
